Test results taken from the supplement of paper PMC6470124.

How the values were obtained:
[1] = LC retention time (Atlantis T3, 5-95% MeOH gradient, 0.1% formic acid); higher = more retained / less polar
Outline: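 Retention times were recorded for reference standards (purity ≥ 95%) on a polar reversed-phase C18 column (Atlantis T3, 3 × 150 mm, 3 μm) at 0.3 mL/min. Elution used water and methanol, each with 0.1% formic acid, in a gradient from 5 to 95% methanol over 17.5 min. Detection was by high-resolution tandem mass spectrometry on a QExactive Plus, with positive and negative electrospray in separate runs. Peaks were found and integrated in TraceFinder (5 ppm tolerance, at least three points per peak) and then checked by hand.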

[2] = absolute recovery over vacuum-assisted evaporative concentration; higher = better recovery; conditions: enrichment method: VEC
Outline: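 Absolute recovery was calculated as (response ratio pre − unspiked)/(post − unspiked) × 100 from averages of ≥ 2 replicates. Influent (6 mL), effluent (15 mL), and surface and nanopure water (60 mL) samples were spiked with standards before concentration, after concentration, or not at all, at 200 ng/L for nanopure and surface water or 1000 ng/L for wastewater, with class- and compound-specific adjustments. Samples were evaporated at 55 °C and 20 mbar to about 0.3 mL, made up to 0.4 mL and centrifuged, then internal standards were added before LC-HRMS/MS analysis.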

[3] = absolute recovery over mixed-bed multilayer solid-phase extraction; higher = better recovery; conditions: enrichment method: SPE
Outline: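 Wastewater (100–250 mL, adjusted to pH 6.5 and glass-fibre filtered) or 1000 mL unfiltered nanopure water was loaded on a three-layer mixed-bed cartridge and eluted with basic then acidic ethyl acetate/methanol. Standards were spiked before extraction, after it, or not at all, at 200 ng/L (water) or 1000 ng/L (wastewater), with class exceptions. Internal standards were added afterwards, then LC-HRMS/MS ran in both ionisation modes. Absolute recovery compares background-corrected response ratios of pre- versus post-spiked samples, averaged over at least two replicates.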

Row | SMILES | LC retention time [1] | absolute recovery ([2]; wastewater effluent) | absolute recovery ([2]; wastewater influent) | absolute recovery ([3]; nanopure water) | absolute recovery ([3]; surface water) | absolute recovery ([3]; wastewater effluent) | absolute recovery ([3]; wastewater influent)
1 | Cc1nn(-c2cc(NS(C)(=O)=O)c(Cl)cc2Cl)c(=O)n1C(F)F [Sulfentrazon] | 17.3 min | 104% | 107% | 97.5% | 100% | 92.9% | 88.9%
2 | CCS(=O)(=O)c1nc2ccccn2c1S(=O)(=O)[N-]C(=O)Nc1nc(OC)cc(OC)n1 [Sulfosulfuron] | 19.4 min | 108% | 98.9% | 101% | 94.4% | 94.6% | 102%
3 | CC[NH+]1CCCC1CNC(=O)c1cc(S(N)(=O)=O)ccc1OC (stereo unspecified) [Sulpirid] | 8.45 min | 101% | 101% | 80.1% | 80.6% | 77.1% | 93.3%
4 | CC(C)CC(C)(O)C#CC(C)(O)CC(C)C (stereo unspecified) [Surfynol-104A] | 20.9 min | 75.3% | 70.8% | 86.2% |  | 73.8% | 143%
5 | CC(C)(C)C(O)(CCc1ccc(Cl)cc1)Cn1cncn1 (stereo unspecified) [Tebuconazol] | 20.9 min | 106% | 99.8% | 98.5% | 94.7% | 96% | 94.3%
6 | CCc1ccc(C(=O)NN(C(=O)c2cc(C)cc(C)c2)C(C)(C)C)cc1 [Tebufenozid] | 20.5 min | 102% | 98.1% | 104% | 111% | 98.7% | 103%
7 | CC(C)N(Cc1ccccc1)C(=O)C(C)(C)C [Tebutam] | 20.5 min | 52.3% | 46.1% | 85.7% | 88.7% | 81.3% | 89.5%
8 | CCCc1nc2c(C)cc(-c3nc4ccccc4n3C)cc2n1Cc1ccc(-c2ccccc2C(=O)[O-])cc1 [Telmisartan] | 17.1 min | 86.1% | 82.1% | 108% | 82.5% | 88.5% | 126%
9 | CS(=O)(=O)c1ccc(C(=O)[C-]2C(=O)CCCC2=O)c(Cl)c1COCC(F)(F)F [Tembotrione] | 18.9 min | 104% | 116% | 91.7% | 89.4% | 90.9% | 91.3%
10 | CC(Cn1cnc2c(N)ncnc21)OCP(=O)([O-])O (stereo unspecified) [Tenofovir] | 7.16 min | 105% | 114% | 70% |  | 1.9% | 
11 | CCC(=[NH+]OCC=CCl)C1=C([O-])CC(C2CCOCC2)CC1=O (stereo unspecified) [Tepraloxydim] | 19 min | 114% | 102% | 98.7% | 90.1% | 92.9% | 
12 | Cc1[nH]c(=O)n(C(C)(C)C)c(=O)c1Cl [Terbacil] | 17.6 min | 102% | 105% | 96.1% | 96% | 97.3% | 97.2%
13 | CC(C)(C)Nc1nc(N)nc(O)n1 [Terbutylazin-desethyl-2-hydroxy] | 9.56 min | 113% | 85.2% | 89.9% | 102% | 96.7% | 94.1%
14 | CC(C)(C)Nc1nc(N)nc(Cl)n1 [Terbutylazin-desethyl] | 17.5 min | 97.7% | 104% | 88.2% | 97.5% | 95.8% | 96.2%
15 | CCNc1nc(Cl)nc(NC(C)(C)C)n1 [Terbutylazin] | 19.7 min | 95% | 91.9% | 94.9% | 95% | 93.8% | 93.4%
16 | COCCOCCOCCOCCOC [Tetraglyme] | 13.2 min | 103% | 112% | 80.5% | 83.7% | 83.5% | 99.6%
17 | CN1C(=O)CN=C(C2=CCCCC2)c2cc(Cl)ccc21 [Tetrazepam] | 19.9 min | 105% | 100% | 86.9% | 63.8% | 64.4% | 72.4%
18 | c1ccc2[nH]c(-c3cscn3)nc2c1 [Thiabendazol] | 11.7 min | 102% | 105% | 79.2% | 77.5% | 81.8% | 92.3%
19 | NC(=O)N=C1SCCN1Cc1ccc(Cl)nc1 [Thiacloprid-amide] | 13.2 min | 106% | 104% | 109% | 108% | 104% | 96.3%
20 | N#CN=C1SCCN1Cc1ccc(Cl)nc1 [Thiacloprid] | 15.1 min | 102% | 106% | 97.8% |  | 96.9% | 87.5%
21 | CN1COCN(Cc2cnc(Cl)s2)C1=N[N+](=O)[O-] [Thiamethoxam] | 12.2 min | 100% | 105% | 98.4% | 93.9% | 96.3% | 94.2%
22 | COC(=O)c1csc(C)c1S(=O)(=O)[N-]C(=O)n1nc(OC)n(C)c1=O [Thiencarbazone] | 16.5 min | 110% | 106% | 104% | 93.9% | 92.6% | 87%
23 | COC(=O)c1sccc1S(=O)(=O)[N-]C(=O)Nc1nc(C)nc(OC)n1 [Thifensulfuron-methyl] | 16.7 min | 104% | 114% | 98.9% | 95% | 93.4% | 92.3%
24 | CCCC(C)C1(CC)C(=O)N=C([S-])NC1=O (stereo unspecified) [Thiopental] | 18.7 min | 77.5% | 82.5% | 49.9% | 83.4% | 66.9% | 73.1%
25 | CC[NH+](CC)CCNC(=O)c1cc(S(C)(=O)=O)ccc1OC [Tiaprid] | 9.13 min | 108% | 103% | 90.9% | 94.9% | 90.3% | 94.9%
26 | Clc1ccccc1C[NH+]1CCc2sccc2C1 [Ticlopidin] | 12.7 min | 51% | 45.4% | 83.9% | 85.9% | 84.5% | 81.1%

Row | SMILES | LC retention time [1] | absolute recovery ([2]; wastewater effluent) | absolute recovery ([2]; wastewater influent) | absolute recovery ([3]; nanopure water) | absolute recovery ([3]; surface water) | absolute recovery ([3]; wastewater effluent) | absolute recovery ([3]; wastewater influent)
27 | CCOC(=O)C1(c2ccccc2)CCC=CC1[NH+](C)C (stereo unspecified) [Tilidine] | 12.6 min | 70% | 63.5% | 73.9% | 78.8% | 79.5% | 83.5%
28 | CC(C)(C)[NH2+]CC(O)COc1nsnc1N1CCOCC1 (stereo unspecified) [Timolol] | 12.3 min | 106% | 103% | 82.7% | 83.1% | 86.3% | 83.9%
29 | Cc1cccc(N(C)C(=S)Oc2ccc3ccccc3c2)c1 [Tolnaftat] | 22 min | 90.5% | 92.4% | 63.9% | 98% | 75.8% | 73.4%
30 | Cc1cccc(Nc2ccncc2S(=O)(=O)[N-]C(=O)NC(C)C)c1 [Torasemid] | 15.6 min | 103% | 105% |  | 94.3% | 92.3% | 96%
31 | COc1cccc(C2(O)CCCCC2C[N+](C)(C)[O-])c1 (stereo unspecified) [Tramadol-N-oxide] | 12.7 min | 104% | 102% | 99.4% | 91.3% | 90.2% | 95%
32 | COc1cccc(C2(O)CCCCC2C[NH+](C)C)c1 (stereo unspecified) [Tramadol] | 12.2 min | 82.8% | 144% | 94.2% | 85.7% | 92% | 91.6%
33 | CC(C)(C)C(O)C(Oc1ccc(Cl)cc1)n1cncn1 (stereo unspecified) [Triadimenol-A] | 20 min | 87.1% | 97.4% | 98.4% | 83.6% | 85.5% | 94.1%
34 | [O-][n+]1nc(-n2ccnc2)nc2ccc(Cl)cc21 [Triazoxide] | 17.5 min | 105% | 89% | 87.3% | 91.5% | 87.4% | 92.3%
35 | COC(=O)c1ccccc1S(=O)(=O)[N-]C(=O)N(C)c1nc(C)nc(OC)n1 [Tribenuron-methyl] | 18.1 min | 124% | 119% |  | 24.9% | 38% | 
36 | CSc1nc2cc(Oc3cccc(Cl)c3Cl)c(Cl)cc2[nH]1 [Triclabendazol] | 21.8 min | 86.4% | 102% | 59.4% | 111% | 88.5% | 61.3%
37 | O=C(Nc1ccc(Cl)cc1)Nc1ccc(Cl)c(Cl)c1 [Triclocarban] | 22 min | 113% | 112% | 57.9% | 118% | 91.3% | 64.3%
38 | Oc1cc(Cl)ccc1Oc1ccc(Cl)cc1Cl [Triclosan] | 21.9 min |  | 117% | 97.2% | 90.7% | 90% | 92.3%
39 | CCOP(=O)(OCC)OCC [Triethylphosphat] | 15.9 min | 83.5% | 79.6% | 76.6% | 87.7% | 81.5% | 
40 | CON=C(C(=O)OC)c1ccccc1CON=C(C)c1cccc(C(F)(F)F)c1 [Trifloxystrobin] | 21.4 min | 77.4% | 97.5% |  | 97.3% | 88.9% | 99.8%
41 | CCCOCC(=Nc1ccc(Cl)cc1C(F)(F)F)n1ccnc1 [Triflumizole] | 21.3 min | 93.9% | 114% | 85.9% | 104% | 97.8% | 61.8%
42 | COC(=O)c1cccc(C)c1S(=O)(=O)[N-]C(=O)Nc1nc(OCC(F)(F)F)nc(N(C)C)n1 [Triflusulfuron-methyl] | 19.4 min | 106% | 108% | 103% | 102% | 93.1% | 90.6%
43 | CC(CN1c2ccccc2CCc2ccccc21)C[NH+](C)C (stereo unspecified) [Trimipramin] | 16.2 min | 101% | 104% | 89.9% | 102% | 95.3% | 54.3%
44 | O=C1CC(C(=O)[O-])CC(=O)C1=C([O-])C1CC1 (stereo unspecified) [Trinexapac (free acid)] | 16.6 min | 108% | 93% | 76.1% | 36.1% | 78.5% | 77%
45 | CCOC(=O)C1CC(=O)C(=C([O-])C2CC2)C(=O)C1 (stereo unspecified) [Trinexapac-ethyl] | 18.8 min | 102% | 93.4% | 93.6% | 93.1% | 90.1% | 93.2%
46 | COc1nc(NC(=O)[N-]S(=O)(=O)c2ccccc2C(F)(F)F)nc(C(F)(F)F)n1 [Tritosulfuron] | 19.6 min | 94.7% | 101% | 97% | 93.4% | 90.7% | 103%
47 | O=C(OC1CC2CCC(C1)[N+]21CCCC1)C(O)(c1ccccc1)c1ccccc1 (stereo unspecified) [Trospium] | 13.7 min | 99.2% | 103% | 85.5% | 91.7% | 91.1% | 87.3%
48 | CCC1OC(=O)CC(O)C(C)C(OC2OC(C)C(OC3CC(C)(O)C(O)C(C)O3)C([NH+](C)C)C2O)C(CC=O)CC(C)C(=O)C=CC(C)=CC1COC1OC(C)C(O)C(OC)C1OC (stereo unspecified) [Tylosin] | 15.8 min | 66.4% | 77.5% | 65.9% | 56.4% | 64.9% | 72.2%
49 | CC(CCC(=O)[O-])C1CCC2C3C(O)CC4CC(O)CCC4(C)C3CCC12C (stereo unspecified) [Ursodeoxycholic-acid] | 21.1 min | 97% |  | 73.8% |  | 79.2% | 
50 | CC(C)C([NH3+])C(=O)OCC(CO)OCn1cnc2c(=O)[nH+]c(N)[nH]c21 (stereo unspecified) [Valganciclovir] | 7.61 min | 83.6% | 72.2% | 82.7% | 63.7% | 69.7% | 69.5%
51 | O=C([O-])c1ccc(-c2ccccc2-c2nn[nH]n2)cc1 [Valsartan-acid] | 16.4 min |  | 104% | 96.4% | 101% |  | 95.2%
52 | CCCCC(=O)N(Cc1ccc(-c2ccccc2-c2nnn[n-]2)cc1)C(C(=O)[O-])C(C)C (stereo unspecified) [Valsartan] | 19.6 min | 103% |  | 95.8% | 101% | 91% | 
